Source: patent publication US20180200257A1, “METHODS FOR THE TREATMENT OF INFLAMMATORY DISORDERS” (Galapagos NV, priority 2015, published 2018)

Test system: Subjects With Active Crohn's Disease With Evidence of Mucosal Ulceration
Experiment: Study 3 - Creatinine levels
Assay type: in vivo, human
Details: for Study 3 - Creatinine Mean CFB / Study 3 - Creatinine Mean percentage CFB: 10 weeks results, 200 mg q.d.
Text: Double-Blind, Randomized, Placebo-Controlled, Multi-Centre Study to Investigate the Efficacy and Safety of Compound 1 in Subjects With Active Crohn's Disease With Evidence of Mucosal Ulceration. This is a double-blind, randomized, placebo-controlled, multi-centre Phase 2 study to investigate the efficacy and safety of Compound 1 administered once daily for the treatment of active CD with evidence of mucosal ulceration. The pharmacokinetics (including a PK substudy) and pharmacodynamics of Compound 1 and metabolite in CD will also be characterised. A total of 180 eligible subjects will be randomized to receive Compound 1 or placebo in addition to their stable background treatment (eg, corticosteroids, aminosalicylates, or CD-related antibiotics). The study will consist of 2 parts, with total treatment duration of 20 weeks. Randomization in Part 1 will be stratified according the subject's previous anti-TNF exposure/response, CRP level at Screening, and oral corticosteroid use at visit Day −1. After the first 10 weeks of treatment in Part 1, patients will be re-randomized for Part 2 as shown in the diagram below and will be stratified according to the subject's clinical response, previous anti-TNF exposure/response, and oral corticosteroid use at visit Day -1. [table] Creatinine levels determination is available at Quest Diagnostics, Clinical Trials, Quest House, 125-135 Staines Road, Hounslow, Middlesex, TW3 3JB, United Kingdom under Catalogue n# 82565. For Study 3, the data are obtained at BARC Europe, 3B,Industrie Park, Zwijnaarde, B-9052 Ghent, Belgium. The Enzymatic method is based on the determination of sarcosine after conversion of creatinine with the aid of creatininase, creatinase, and sarcosine oxidase. The liberated hydrogen peroxide reacts with 4-aminophenazone and HTIB to form a quinone imine chromogen. The reaction is catalyzed by peroxidase. The color intensity is directly proportional to concentration of creatinine present and can be measured photometrically.

[1] = 200 mg q.d. continued to week 20 (N = 77), week 0
[2] = 200 mg q.d. continued to week 20 (N = 77), week 2
[3] = 200 mg q.d. continued to week 20 (N = 77), week 4
[4] = 200 mg q.d. continued to week 20 (N = 77), week 6
[5] = 200 mg q.d. continued to week 20 (N = 77), week 10
[6] = 200 mg q.d. continued to week 20 (N = 77), week 12
[7] = 200 mg q.d. continued to week 20 (N = 77), week 16
[8] = 200 mg q.d. continued to week 20 (N = 77), week 20
[9] = 200 mg q.d. week 0 to 10, to 100 mg q.d. week 10 to 20 (N = 30), week 0
[10] = 200 mg q.d. week 0 to 10, to 100 mg q.d. week 10 to 20 (N = 30), week 2
[11] = 200 mg q.d. week 0 to 10, to 100 mg q.d. week 10 to 20 (N = 30), week 4
[12] = 200 mg q.d. week 0 to 10, to 100 mg q.d. week 10 to 20 (N = 30), week 6
[13] = 200 mg q.d. week 0 to 10, to 100 mg q.d. week 10 to 20 (N = 30), week 10
[14] = 200 mg q.d. week 0 to 10, to 100 mg q.d. week 10 to 20 (N = 30), week 12
[15] = 200 mg q.d. week 0 to 10, to 100 mg q.d. week 10 to 20 (N = 30), week 16
[16] = 200 mg q.d. week 0 to 10, to 100 mg q.d. week 10 to 20 (N = 30), week 20
[17] = 200 mg q.d. week 0 to 10, to placebo week 10 to 20 (N = 23), week 0
[18] = 200 mg q.d. week 0 to 10, to placebo week 10 to 20 (N = 23), week 2
[19] = 200 mg q.d. week 0 to 10, to placebo week 10 to 20 (N = 23), week 4
[20] = 200 mg q.d. week 0 to 10, to placebo week 10 to 20 (N = 23), week 6
[21] = 200 mg q.d. week 0 to 10, to placebo week 10 to 20 (N = 23), week 10
[22] = 200 mg q.d. week 0 to 10, to placebo week 10 to 20 (N = 23), week 12
[23] = 200 mg q.d. week 0 to 10, to placebo week 10 to 20 (N = 23), week 16
[24] = 200 mg q.d. week 0 to 10, to placebo week 10 to 20 (N = 23), week 20
[25] = placebo week 0 to 10, to 100 mg q.d. week 10 to 20 (N = 22), week 12
[26] = placebo week 0 to 10, to 100 mg q.d. week 10 to 20 (N = 22), week 16
[27] = placebo week 0 to 10, to 100 mg q.d. week 10 to 20 (N = 22), week 20

O=C(Nc1nc2cccc(-c3ccc(CN4CCS(=O)(=O)CC4)cc3)n2n1)C1CC1 [Compound 1, cyclopropanecarboxylic acid {5-[4-(1,1-dioxo-thiomorpholin-4-ylmethyl)-phenyl]-[1,2,4]triazolo[1,5-a]pyridin-2-yl}-amide]
Creatinine Mean CFB [1]: 0.0 µmol/L
Creatinine Mean percentage CFB [1]: 0.0%
Creatinine Mean CFB [2]: 2.22 µmol/L
Creatinine Mean percentage CFB [2]: 4.13%
Creatinine Mean CFB [3]: 3.93 µmol/L
Creatinine Mean percentage CFB [3]: 6.08%
Creatinine Mean CFB [4]: 2.51 µmol/L
Creatinine Mean percentage CFB [4]: 4.44%
Creatinine Mean CFB [5]: 6.00 µmol/L
Creatinine Mean percentage CFB [5]: 9.34%
Creatinine Mean CFB [6]: 4.02 µmol/L
Creatinine Mean percentage CFB [6]: 7.10%
Creatinine Mean CFB [7]: 1.81 µmol/L
Creatinine Mean percentage CFB [7]: 3.62%
Creatinine Mean CFB [8]: 3.20 µmol/L
Creatinine Mean percentage CFB [8]: 5.43%
Creatinine Mean CFB [9]: 0.0 µmol/L
Creatinine Mean percentage CFB [9]: 0.0%
Creatinine Mean CFB [10]: 3.36 µmol/L
Creatinine Mean percentage CFB [10]: 5.77%
Creatinine Mean CFB [11]: 4.98 µmol/L
Creatinine Mean percentage CFB [11]: 8.03%
Creatinine Mean CFB [12]: 4.00 µmol/L
Creatinine Mean percentage CFB [12]: 6.37%
Creatinine Mean CFB [13]: 6.48 µmol/L
Creatinine Mean percentage CFB [13]: 11.55%
Creatinine Mean CFB [14]: 2.92 µmol/L
Creatinine Mean percentage CFB [14]: 6.01%
Creatinine Mean CFB [15]: 4.89 µmol/L
Creatinine Mean percentage CFB [15]: 8.86%
Creatinine Mean CFB [16]: 3.43 µmol/L
Creatinine Mean percentage CFB [16]: 6.19%
Creatinine Mean CFB [17]: 0.0 µmol/L
Creatinine Mean percentage CFB [17]: 0.0%
Creatinine Mean CFB [18]: 1.95 µmol/L
Creatinine Mean percentage CFB [18]: 3.55%
Creatinine Mean CFB [19]: 3.83 µmol/L
Creatinine Mean percentage CFB [19]: 6.09%
Creatinine Mean CFB [20]: 2.15 µmol/L
Creatinine Mean percentage CFB [20]: 3.92%
Creatinine Mean CFB [21]: 5.88 µmol/L
Creatinine Mean percentage CFB [21]: 10.23%
Creatinine Mean CFB [22]: 1.84 µmol/L
Creatinine Mean percentage CFB [22]: 3.14%
Creatinine Mean CFB [23]: 0.47 µmol/L
Creatinine Mean percentage CFB [23]: 1.93%
Creatinine Mean CFB [24]: -0.26 µmol/L
Creatinine Mean percentage CFB [24]: 0.68%
Study 3 - Creatinine Mean CFB (week 2): 2.44 µM
Study 3 - Creatinine Mean percentage CFB (week 2): 4.41%
Study 3 - Creatinine Mean CFB (week 4): 4.16 µM
Study 3 - Creatinine Mean percentage CFB (week 4): 6.55%
Study 3 - Creatinine Mean CFB (week 6): 2.81 µM
Study 3 - Creatinine Mean percentage CFB (week 6): 4.82%
Study 3 - Creatinine Mean CFB (week 10): 6.08 µM
Study 3 - Creatinine Mean percentage CFB (week 10): 10.05%
Creatinine Mean CFB [25]: 3.09 µmol/L
Creatinine Mean percentage CFB [25]: 4.87%
Creatinine Mean CFB [26]: 4.33 µmol/L
Creatinine Mean percentage CFB [26]: 6.52%
Creatinine Mean CFB [27]: 3.11 µmol/L
Creatinine Mean percentage CFB [27]: 4.31%
